Experimental data as given in patent US6753337B2, “Alkynyl containing hydroxamic acid compounds as matrix metalloproteinase/tace inhibitors” (Wyeth Holdings Corporation, priority 1999, dated 2004).

Assays:
[1] = molecular target: TNF-α converting enzyme (TACE) (Homo sapiens, UniProt P78536); experiment: Test procedure for measuring TACE inhibition (fluorescent peptidyl substrate); assay type: biochemical
Description: Using 96-well black microtiter plates, each well receives a solution composed of 10 μL TACE (final concentration 1 μg/mL), 70 μL Tris buffer, pH 7.4 containing 10% glycerol (final concentration 10 mM), and 10 μL of test compound solution in DMSO (final concentration 1 μM, DMSO concentration <1%) and incubated for 10 minutes at room temperature. The reaction is initiated by addition of a fluorescent peptidyl substrate (final concentration 100 μM to each well and then shaking on a shaker for 5 sec.
The reaction is read (excitation 340 nm, emission 420 nm) for 10 min. and the increase in fluorescence over time is plotted as a linear line. The slope of the line is calculated and represents the reaction rate.
The mean (x±sem) of the control rate is calculated and compared for statistical significance (p<0.05) with drug-treated rates using Dunnett's multiple comparison test.

MMP-9 = MMP-9 (Homo sapiens, UniProt P14780); experiment: MMP-9 inhibition (thiopeptide or fluorescent peptide substrate); assay type: biochemical; conditions: read-out: MMP9 IC50
Description: These standard pharmacological test procedures are based on the cleavage of a thiopeptide substrates such as Ac-Pro-Leu-Gly(2-mercapto-4-methyl-pentanoyl)-Leu-Gly-OEt by the matrix metalloproteinases MMP-1, MMP-13 (collagenases) or MMP-9 (gelatinase), which results in the release of a substrate product that reacts colorimetrically with DTNB (5,5′-dithiobis(2-nitro-benzoic acid)). The enzyme activity is measured by the rate of the color increase. The thiopeptide substrate is made up fresh as a 20 mM stock in 100% DMSO and the DTNB is dissolved in 100% DMSO as a 100 mM stock and stored in the dark at room temperature. Both the substrate and DTNB are diluted together to 1 mM with substrate buffer (50 mM HEPES pH 7.5, 5 mM CaCl2) before use. The stock of enzyme is diluted with buffer (50 mM HEPES, pH 7.5, 5 mM CaCl2, 0.02% Brij) to the desired final concentration. The buffer, enzyme, vehicle or inhibitor, and DTNB/substrate are added in this order to a 96 well plate (total reaction volume of 200 μl) and the increase in color is monitored spectrophotometrically for 5 minutes at 405 nm on a plate reader and the increase in color over time is plotted as a linear line.
Alternatively, a fluorescent peptide substrate is used. In this test procedure, the peptide substrate contains a fluorescent group and a quenching group. Upon cleavage of the substrate by an MMP, the fluorescence that is generated is quantitated on the fluorescence plate reader. The assay is run in HCBC assay buffer (50 mM HEPES, pH 7.0, 5 mM Ca^+2, 0.02% Brij, 0.5% Cysteine), with human recombinant MMP-1, MMP-9, or MMP-13. The substrate is dissolved in methanol and stored frozen in 1 mM aliquots. For the assay, substrate and enzymes are diluted in HCBC buffer to the desired concentrations. Compounds are added to the 96 well plate containing enzyme and the reaction is started by the addition of substrate. The reaction is read (excitation 340 nm, emission 444 nm) for 10 min. and the increase in fluorescence over time is plotted as a linear line.
For either the thiopeptide or fluorescent peptide test procedures, the slope of the line is calculated and represents the reaction rate. The linearity of the reaction rate is confirmed (r^2>0.85). The mean (x±sem) of the control rate is calculated and compared for statistical significance (p<0.05) with drug-treated rates using Dunnett's multiple comparison test. Dose-response relationships can be generated using multiple doses of drug and IC50 values with 95% CI are estimated using linear regression.

THP-1 cells = experiment: Human monocytic THP-1 cell differentiation assay for soluble proteins (THP-1 soluble protein assay); assay type: cell-based; conditions: LPS-stimulated THP-1 cells, soluble protein not given
Source text: Mitogenic stimulation of THP-1 cells cause differentiation into macrophage like cells with concomitant secretion of tumor necrosis factor (TNF-α) and TNF receptor (TNF-R p75/80 and TNF-R p55160) and Interleukin-8 (IL-8), among other proteins. In addition, non-stimulated THP-1 cells shed both the p75/80 and the p55/60 receptors over time. The release of membrane bound TNF-α and possibly TNF-R p75/80 and TNF-R p55/60, but not IL-8, is mediated by an enzyme called TNF-α converting enzyme or TACE.
THP-1 cells (from ATCC) are a human monocytic cell line which were obtained from the peripheral blood of a person with acute monocytic leukemia. They can be grown in culture and differentiated into macrophage like cells by stimulation with mitogens.
Each vial of cells are cultured for about two weeks prior to being used for an assay and then are used for only 4 to 6 weeks to screen compounds.
Cell exposure to DMSO was limited to 0.1% final concentration. […] Compounds can be evaluated for their effect on basal (non-stimulated) shedding of the receptors by replacing the LPS with […] of THP-1 media.
Plates are placed into an incubator set at 5% CO2 and at 37° C. After 4 hours of incubation, […] of tissue culture supernatant (TCS) is removed for use in an TNF-α ELISA. Following 24 hours of incubation, […] of TCS is removed and used for analysis in TNF-R p75/80, TNF-R p55160 and IL-8 ELISAs.
In addition, at the 24 hours timepoint, and the cells for each treatment group are collected by resuspension in 500 μl/well of THP-1 media and transferred into a FACS tube. […] The samples are run on a Becton Dickinson FaxCaliber FLOW cytometry machine and the amount of dye taken up by each cell is measured in the high red wavelength (FL3). Only cells with compromised membranes (dead or dying) can take up PI. The percent of live cells is calculated by the number of cells not stained with PI, divided by the total number of cells in the sample. The viability values calculated for the drug treated groups were compared to the viability value calculated for the vehicle treated mitogen stimulated group (“vehicle positive control”) to determine the “percent change from control”. This “percent change from control” value is an indicator of drug toxicity.
The quantity of soluble TNF-α, TNF-R p75/80 and TNF-R p55160 and IL-8 in the TCS of the THP-1 cell cultures are obtained with commercially available ELISAs from R&D Systems, by extrapolation from a standard curve generated with kit standards. The number of cells that either take up or exclude PI are measured by the FLOW cytometry machine and visualized by histograms using commercially available Cytologic software for each treatment group including all controls.
Biological variability in the magnitude of the response of THP-1 cell cultures requires that experiments be compared on the basis of percent change from “vehicle positive control” for each drug concentration. Percent change in each soluble protein evaluated from the “vehicle positive control” was calculated for each compound concentration with the following formula: [formula]
For the soluble protein (TNF-α, p75/80, p55/60, IL-8) studies under stimulated conditions, the mean pg/ml of duplicate wells were determined and the results expressed as percent change from “vehicle positive control”. For the soluble protein (p75/80 and p55/60 receptors) studies under non-stimulated conditions, the mean pg/ml of duplicate wells were determined and the results expressed as percent change from “vehicle positive control” utilizing the following formula: [formula]
IC50 values for each compound are calculated by non-linear regression analysis using customized software utilizing the JUMP statistical package.
For the cell viability studies, the viabilities (PI exclusion) of pooled duplicate wells were determined and the results expressed as % change from “vehicle positive control”.

Chain of MMP-9 (P14780 94-707): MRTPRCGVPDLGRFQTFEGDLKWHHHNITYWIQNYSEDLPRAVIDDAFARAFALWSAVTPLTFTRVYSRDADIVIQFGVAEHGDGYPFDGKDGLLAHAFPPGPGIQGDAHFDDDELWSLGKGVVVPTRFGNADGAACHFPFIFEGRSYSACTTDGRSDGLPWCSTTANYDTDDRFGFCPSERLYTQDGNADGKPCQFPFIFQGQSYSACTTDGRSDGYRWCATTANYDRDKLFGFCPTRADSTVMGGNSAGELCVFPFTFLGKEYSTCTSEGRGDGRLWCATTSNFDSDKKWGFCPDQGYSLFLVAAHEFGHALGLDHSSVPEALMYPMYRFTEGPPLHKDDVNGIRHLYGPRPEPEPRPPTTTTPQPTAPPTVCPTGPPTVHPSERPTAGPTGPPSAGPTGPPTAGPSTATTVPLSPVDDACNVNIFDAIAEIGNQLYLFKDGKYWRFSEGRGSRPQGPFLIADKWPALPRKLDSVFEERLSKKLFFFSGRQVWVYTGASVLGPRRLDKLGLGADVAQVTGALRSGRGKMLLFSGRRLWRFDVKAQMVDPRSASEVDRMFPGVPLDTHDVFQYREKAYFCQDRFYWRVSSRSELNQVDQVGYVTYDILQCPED
Chain of TNF-α converting enzyme (TACE) (P78536 215-824): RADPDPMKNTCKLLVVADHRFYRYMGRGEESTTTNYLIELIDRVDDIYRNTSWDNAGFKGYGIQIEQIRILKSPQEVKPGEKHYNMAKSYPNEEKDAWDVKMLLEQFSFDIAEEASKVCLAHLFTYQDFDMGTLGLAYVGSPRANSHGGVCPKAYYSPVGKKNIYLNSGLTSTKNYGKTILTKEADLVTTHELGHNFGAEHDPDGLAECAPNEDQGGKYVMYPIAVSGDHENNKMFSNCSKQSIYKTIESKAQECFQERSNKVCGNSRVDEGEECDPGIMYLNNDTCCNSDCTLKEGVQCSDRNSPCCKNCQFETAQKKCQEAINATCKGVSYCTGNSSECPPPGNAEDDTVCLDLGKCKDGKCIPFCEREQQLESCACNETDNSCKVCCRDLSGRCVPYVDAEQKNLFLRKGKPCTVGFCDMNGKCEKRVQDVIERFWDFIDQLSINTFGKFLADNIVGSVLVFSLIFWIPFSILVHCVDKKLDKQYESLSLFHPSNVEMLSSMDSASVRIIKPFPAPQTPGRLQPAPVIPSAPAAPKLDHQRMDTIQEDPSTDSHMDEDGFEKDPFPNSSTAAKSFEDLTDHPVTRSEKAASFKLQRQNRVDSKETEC

Row | SMILES | IC50 [1] | IC50 (MMP-9) | inhibition at 3 µM (THP-1 cells) | inhibition at 1 µM [1]
1 | CC#CCOc1ccc(S(=O)(=O)C2(C(=O)NO)CCN(Cc3ccc(Br)cc3)CC2)cc1 [Example 1, 1-(4-Bromo-benzyl)-4-(4-but-2-ynyxoy-benzenesulfonyl)-piperdine-4-carboxylic acid hydroxyamide] | 0.065 µM | 0.385 µM | 46% | 
2 | CC#CCOc1ccc(S(=O)(=O)C2(C(=O)NO)CCN(Cc3ccc(OC)cc3)CC2)cc1 [Example 2, 4-(4-But-2-ynyloxy-benzenesulfonyl)-1-(4-methoxy-benzyl)-piperdine-4-carboxylic acid hydroxyamide] | 0.082 µM | 0.164 µM | 68% | 
3 | CC#CCOc1ccc(S(=O)(=O)C2(C(=O)NO)CCN(Cc3ccc(Cl)cc3)CC2)cc1 [Example 3, 4-(4-But-2-ynyloxy-benzenesulfonyl)-1-(4-chloro-benzyl)-piperdine-4-carboxylic acid hydroxyamide] | 0.055 µM | 0.28 µM | 34% | 
4 | CC#CCOc1ccc(S(=O)(=O)C2(C(=O)NO)CCN(Cc3ccccc3)CC2)cc1 [Example 4, 1-Benzyl-4-(4-but-2-ynyloxy-benzenesulfonyl)-piperdine-4-carboxylic acid hydroxyamide] | 0.09 µM | 0.148 µM | 25% | 
5 | CCC#CCOc1ccc(S(=O)(=O)C2(C(=O)NO)CCN(Cc3ccc(Br)cc3)CC2)cc1 [Example 5, 1-(4-Bromo-benzyl)-4-(4-pent-2-ynyloxy-benzenesulfonyl)-piperdine-4-carboxylic acid hydroxyamide] | 0.188 µM | 0.4 µM | 30% | 
6 | CC#CCOc1ccc(S(=O)(=O)C2(C(=O)NO)CCN(Cc3ccc(F)cc3)CC2)cc1 [Example 7, 4-(4-But-2-ynyloxy-benzenesulfonyl)-1-(4-fluoro-benzyl)-piperidine-4-carboxylic acid hydroxyamide] | 0.123 µM | 0.225 µM | 21% | 
7 | CC#CCOc1ccc(S(=O)(=O)C2(C(=O)NO)CCN(Cc3ccc(C#N)cc3)CC2)cc1 [Example 8, 4-(4-But-2-ynyloxy-benzenesulfonyl)-1-(4-cyano-benzyl)-piperidine-4-carboxylic acid hydroxyamide] | 0.195 µM | 0.218 µM | 21% | 
8 | CC#CCOc1ccc(S(=O)(=O)C2(C(=O)NO)CCN(Cc3ccc(C)cc3)CC2)cc1 [Example 9, 4-(4-But-2-ynyloxy-benzenesulfonyl)-1-(4-methyl-benzyl)-piperidine-4-carboxylic acid hydroxamide] | 0.166 µM | 0.0962 µM | 12% | 
9 | C#CCOc1ccc(S(=O)(=O)C2(C(=O)NO)CCN(Cc3ccc(Br)cc3)CC2)cc1 [Example 11, 1-(4-Bromo-benzyl)-4-(4-prop-2-ynyloxy-benzenesulfonyl)-piperdine-4-carboxylic acid hydroxyamide] | 0.098 µM | 0.0058 µM | 7% | 
10 | O=C(NO)C1(S(=O)(=O)c2ccc(OCC#CCN3CCCCC3)cc2)CCN(Cc2ccc(Br)cc2)CC1 [Example 12, 1-(4-bromo-benzyl)-4-[4-(4-piperidin-1-yl-but-2-ynyloxy)-benzenesulfonyl]-piperidine-4-carboxylic acid hydroxyamide] |  | 1 µM | 58% | 41.8%
11 | CC#CCOc1ccc(S(=O)(=O)C2(C(=O)NO)CCOCC2)cc1 [Example 20, 4-{[4-(2-butynyloxy)phenyl]sulfonyl}-N-hydroxytetrahydro-2H-pyran-4-carboxamide] | 0.0301 µM | 0.568 µM | 47% | 
12 | CC#CCOc1cccc(S(=O)(=O)C2(C(=O)NO)CCN(Cc3ccccc3)CC2)c1 [Example 21, 1-benzyl-4-{[3-(2-butynyloxy)phenyl]sulfonyl}-N-hydroxy-4-piperdine carboxamide] | 0.509 µM | 3.5 µM | 6% | 
13 | CC#CCOc1ccc(S(=O)(=O)C2(C(=O)NO)CCN(C(C)C)CC2)cc1 [Example 22, 4-{[4-(2-butynyloxy)phenyl]sulfonyl}-N-hydroxy-1-isopropyl-4-piperidine carboxamide] |  | 1.81 µM | 5% | 48.4%
14 | CC#CCOc1ccc(S(=O)(=O)C2(C(=O)NO)CCN(Cc3cccnc3)CC2)cc1 [Example 23, 4-{[4-(2-butynyloxy)phenyl]sulfonyl}-N-hydroxy-1-(3-pyridinylmethyl)-4-piperidine carboxamide] | 0.0862 µM | 0.16 µM | 62% | 
15 | CC#CCOc1ccc(S(=O)(=O)C2(C(=O)NO)CCCN(CC)C2)cc1 (stereo not drawn) [Example 24, 3-{[4-(2-Butynyloxy)phenyl]sulfonyl}-1-ethyl-N-hydroxy-3-piperidinecarboxamide] | 0.18 µM | 2.08 µM | 41% | 
16 | CC#CCOc1ccc(S(=O)(=O)C2(C(=O)NO)CCCN(Cc3ccc(Cl)cc3)C2)cc1 (stereo not drawn) [Example 25, 3-{[4-(2-butynyloxy)phenyl]sulfonyl}-1-(4-chlorobenzyl)-N-hydroxy-3-piperidinecarboxamide] | 0.695 µM | 2.74 µM | 3% | 
